# In patent US8017791B2, “Tri-substituted 2-benzhydryl-5-benzylamino-tetrahydro-pyran-4-ol and 6-benzhydryl-4-benzylamino-tetrahydro-pyran-3-ol analogues, and novel, 3,6-disubstituted pyran derivatives” (Wayne State University, priority 2003, dated 2011):
# Read-outs that look alike come from different tables or passages of the source.
# Key:
# [1] = molecular target: T1, DAT (Rattus norvegicus, UniProt P23977); test: Inhibition of [3H]WIN 35,428 binding to DAT
# T1 construct: rat striatum was the source for DAT, and cerebral cortex for SERT and NET; from tissue; P2 synaptosomal fraction for uptake
# [2] = molecular target: T2, SERT (Rattus norvegicus, UniProt P31652); test: Inhibition of [3H]citalopram binding to SERT; settings: for SERT binding/DAT binding: Table 3, selectivity ratio of IC50 values
# T2 construct: rat striatum was the source for DAT, and cerebral cortex for SERT and NET; from tissue; host or cells: rat cerebral cortex
# Method: (§1) Biology. […] Briefly, rat striatum was the source for DAT, and cerebral cortex for SERT and NET. […] Test compounds were dissolved in dimethyl sulfoxide (DMSO) and diluted out in 10% (v/v) DMSO. […] At least five triplicate concentrations of each test compound were studied, spaced evenly around the IC50 value. For DAT uptake assays, uptake of 50 nM [^3H]DA into rat striatal synaptosomes was measured exactly as described by us previously. Briefly, rat striatal P2 membrane fractions were incubated with test compounds for 8 min followed by the additional presence of [^3H]DA for 4 min at 25?. […] Construction of inhibition curves and dissolvement of test compounds were as described above.
# [3] = molecular target: T1, DAT; settings: Table 2; values marked b: See reference # 22; read-out: DAT binding, IC50, [3H]Win 35,428; cited from earlier work
# [4] = tested on: NET; test: Inhibition of [3H]nisoxetine binding to NET; set-up: species or system rat; settings: Table 3; selectivity ratio of IC50 values
# Method: as §1
# [5] = molecular target: NET (Rattus norvegicus, UniProt Q9WTR4); test: Inhibition of [3H]nisoxetine binding to NET
# Method: as §1
# [6] = molecular target: T1, DAT; test: Inhibition of [3H]DA uptake by DAT into rat striatal synaptosomes; type: biochemical
# [7] = molecular target: T3, NET (Rattus norvegicus, UniProt Q63380); test: NET uptake inhibition, [3H]NE; type: biochemical; settings: in vitro data, Table 4
# T3 construct: from tissue
# [8] = molecular target: T4, NET (Rattus norvegicus); test: NET uptake inhibition, [3H]NE; type: biochemical; settings: Table 4; rat brain
# T4 construct: from tissue
# [9] = molecular target: T2, SERT; test: SERT uptake inhibition, [3H]5-HT; type: biochemical
# [10] = Table 2, average ± SEM, read-out: SERT binding, IC50 [3H]citalopram
# [11] = Table 2, average ± SEM, read-out: NET binding, IC50 [3H]nisoxetine
# T2 sequence (P31652 whole entry): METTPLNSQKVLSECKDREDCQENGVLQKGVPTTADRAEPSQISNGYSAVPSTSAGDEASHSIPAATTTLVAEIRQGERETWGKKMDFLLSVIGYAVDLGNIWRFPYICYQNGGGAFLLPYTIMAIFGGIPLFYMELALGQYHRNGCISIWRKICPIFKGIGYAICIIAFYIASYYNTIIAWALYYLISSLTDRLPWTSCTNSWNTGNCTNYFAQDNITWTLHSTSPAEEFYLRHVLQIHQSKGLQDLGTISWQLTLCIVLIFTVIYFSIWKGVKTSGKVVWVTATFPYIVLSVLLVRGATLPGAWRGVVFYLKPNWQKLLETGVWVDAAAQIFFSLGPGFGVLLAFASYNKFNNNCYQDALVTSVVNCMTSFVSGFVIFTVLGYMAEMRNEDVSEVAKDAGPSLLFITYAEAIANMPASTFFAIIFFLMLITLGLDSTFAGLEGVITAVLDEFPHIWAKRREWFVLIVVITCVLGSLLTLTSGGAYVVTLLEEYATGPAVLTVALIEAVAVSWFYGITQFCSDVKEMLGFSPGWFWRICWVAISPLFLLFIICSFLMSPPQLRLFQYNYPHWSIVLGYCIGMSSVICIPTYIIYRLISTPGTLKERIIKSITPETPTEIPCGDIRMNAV
# T1 sequence (P23977 whole entry): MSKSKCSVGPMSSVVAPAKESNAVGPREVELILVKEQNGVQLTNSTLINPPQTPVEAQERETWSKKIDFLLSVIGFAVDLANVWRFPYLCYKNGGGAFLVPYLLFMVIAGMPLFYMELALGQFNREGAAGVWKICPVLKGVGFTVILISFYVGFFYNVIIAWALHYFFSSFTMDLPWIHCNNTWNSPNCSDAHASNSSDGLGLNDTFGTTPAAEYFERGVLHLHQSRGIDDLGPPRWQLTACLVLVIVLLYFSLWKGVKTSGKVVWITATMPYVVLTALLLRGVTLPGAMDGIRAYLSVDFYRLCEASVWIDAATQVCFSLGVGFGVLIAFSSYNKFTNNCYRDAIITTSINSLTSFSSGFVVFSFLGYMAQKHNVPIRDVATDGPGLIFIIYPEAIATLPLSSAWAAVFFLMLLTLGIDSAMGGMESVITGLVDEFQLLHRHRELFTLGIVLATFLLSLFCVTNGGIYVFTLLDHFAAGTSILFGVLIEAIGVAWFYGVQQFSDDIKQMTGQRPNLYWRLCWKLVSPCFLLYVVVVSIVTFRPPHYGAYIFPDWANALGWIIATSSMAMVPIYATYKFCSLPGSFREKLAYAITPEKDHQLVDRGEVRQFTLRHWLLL
# T3 sequence (Q63380 1-617): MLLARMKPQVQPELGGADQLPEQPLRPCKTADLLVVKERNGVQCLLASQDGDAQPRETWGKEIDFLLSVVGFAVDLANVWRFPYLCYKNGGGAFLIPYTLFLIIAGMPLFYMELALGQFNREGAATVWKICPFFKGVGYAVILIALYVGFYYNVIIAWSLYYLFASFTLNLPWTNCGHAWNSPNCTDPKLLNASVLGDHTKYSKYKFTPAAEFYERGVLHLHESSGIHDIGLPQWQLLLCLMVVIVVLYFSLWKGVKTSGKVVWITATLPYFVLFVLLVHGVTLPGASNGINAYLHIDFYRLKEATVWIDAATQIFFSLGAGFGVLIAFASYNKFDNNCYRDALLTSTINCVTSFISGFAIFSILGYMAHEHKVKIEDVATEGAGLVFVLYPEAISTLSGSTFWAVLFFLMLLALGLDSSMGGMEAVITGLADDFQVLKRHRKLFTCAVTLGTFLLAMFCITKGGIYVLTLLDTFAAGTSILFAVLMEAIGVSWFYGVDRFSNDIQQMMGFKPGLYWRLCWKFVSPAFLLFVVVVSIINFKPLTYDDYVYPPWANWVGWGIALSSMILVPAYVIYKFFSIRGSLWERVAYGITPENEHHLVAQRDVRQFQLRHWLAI
# T4 sequence (Q63380 1-617): as above
Compound,"activity at DAT, in words [1]","IC50 ([1]; Table 1, rat striatum, read-out: Inhibition of [3H]Win 35,428 binding to DAT IC50)","IC50 ([2]; Table 1, read-out: Inhibition of [3H]citalopram binding to SERT, IC50)","IC50 [2, 10]",SERT binding/DAT binding [2],IC50 [3],NET binding/DAT binding [4],"IC50 ([5]; Table 1, read-out: Inhibition of [3H]nisoxetine binding to NET, IC50)","IC50 [5, 11]","IC50 ([6]; Table 2, average ± SEM, read-out: DAT uptake, IC50 [3H]DA)","[3H]DA uptake/DAT binding ([6]; Table 3, ratio of IC50 values)",IC50 [1],IC50 [6],"selectivity for the NET (NRI profile), in words [7]","selectivity for the NET (NRI profile), in words ([7]; listed as (−)29b)",IC50 [8],IC50 [9]
"Fc1ccc(CN[C@H]2CC[C@H](C(c3ccccc3)c3ccccc3)OC2)cc1 (relative stereo) [Compound 16a, trans-2-diphenylmethyl-5-(4-fluorobenzylamino)-tetrahydropyran]",much weaker at DAT,313 ± 71 nM,8410 nM,8410 nM,26.9,313 nM,40.6,12700 nM,12700 nM,–,–,–,–,–,–,–,–
"Fc1ccc(CN[C@H]2CC[C@@H](C(c3ccccc3)c3ccccc3)OC2)cc1 (relative stereo) [Compound 16b, Cis-(6-benzhydryl-tetrahydropyran-3-yl)-(4-fluoro-benzyl)-amine]",–,–,–,1860 nM,11.4,163 nM,1.4,–,232 ± 46 nM,146 ± 36 nM,0.96,–,–,–,–,–,–
"O[C@@H]1C[C@@H](C(c2ccccc2)c2ccccc2)OC[C@H]1NCc1ccc(F)cc1 [(−)-29b, (2S,4R,5R)-2-benzhydryl-5-(4-fluoro-benzylamino)-tetrahydro-pyran-4-ol]",–,–,–,–,–,–,–,–,–,–,–,308 ± 25 nM,169 ± 20 nM,selective blockers for NET,more selective for the NET,13.3 ± 1 nM,676 ± 33 nM
